Key:
[1] = test system: 35S::PYR1^MANDI transgenic seeds; assay: seed germination on mandipropamid medium; type: in vivo, Arabidopsis; conditions: 1 μM mandipropamid
Excerpt: (§1) We generated a series of transgenic plants expressing PYR1^MANDI under the control of either the cauliflower mosaic virus 35S or Arabidopsis Rubisco small subunit 3B promoters (RBCS). These were generated for the purpose of examining the physiological efficacy of the PYR1^MANDI-mandipropamid system for regulating ABA responses in planta. The PYR1^MANDI coding sequence was PCR amplified from pBD-PYR1^MANDI template and cloned into the plant transformation vector pEGAD under control of the 35S promoter. For the RBCS driven construct, the 35S promoter in pEGAD was replaced with the RBCS promoter, which was amplified from Arabidopsis genomic DNA by PCR; the pEGAD vector contains a glufosinate resistance gene and allows selection of transgenics in soil using commercially available formulations of glufosinate. These two constructs, p35S::PYR1^MANDI and pRBCS::PYR1^MANDI, were introduced into Agrobacterium tumefacians GV3101 and then used to transform Arabidopsis using the floral dip method (Clough and Bent, 1998) and the resultant seed germinated in soil and treated with glufosinate to identify transformed plants. Seed from approximately 15-16 transgenic plants were harvested individually and then characterized. It is well known that ABA inhibits seed germination. […]

[2] = test system: RBCS::PYR1^MANDI transgenic seeds; assay: seed germination on mandipropamid medium; type: in vivo, Arabidopsis; conditions: 1 μM mandipropamid
Excerpt: as §1

[3] = target: T1, PYR1 K59R F108A S122G (Arabidopsis thaliana, UniProt O49686, F108A/K59R/S122G); assay: Y2H Combinatorial Mutagenesis Screen I (HAB1, X-gal); type: cell-based
T1 construct: expressed in transfected cells; host or cells: S. cerevisiae Y190 two-hybrid reporter strain
Excerpt: This screening approach yielded mutants at ligand contacting residues that alter sensitivity to specific ligands. We reasoned that receptor sensitivity could be improved by systematically constructing combinations of the best mutant variants identified in the first round of screening. To test this, we constructed mutant combinations using the strongest mutations identified for mandipropamid, benzothiadiazole, benoxacor or fludioxonil sensitivity. The mutations selected for combinatorial mutagenesis are listed in bold type in Table 1; The mutant combinations were constructed using the QuickChange Lightning Multi Site-Directed PCR Mutagenesis kit (Agilent, USA) using pBD-PYR1^K59R template DNA and mutagenic primers, essentially as previously described (Mosquna et al., 2011). The mutant combinations were sequence validated, introduced into the pACT-HAB1 Y190 reporter strain and then tested for responsiveness to a range of compound concentrations (100, 50, 25, 10, 1, 0.2, 0.1 or 0 μM each test compound). These efforts yielded double mutant receptor variants with improved sensitivity for the 4 compound/receptor pairs examined (see entries labeled “Combinatorial Mutagenesis Screen I” in Table 1).
The preceding efforts identified PYR1^K59R,F108A,S122G, which is responsive to mandipropamid concentrations as low as 1 μM. […]

[4] = test system: transgenic 35S::PYR1^MANDI tomato plants; assay: thermal imaging of leaf temperature; type: in vivo; conditions: 10 μM mandipropamid, 24 hours post treatment
Excerpt: The core ABA response pathway is highly conserved and it is therefore expected that PYR1^MANDI should be able to activate ABA responses in response to mandipropamid in most land plants. To investigate if the physiological activity of PYR1^MANDI is functional in other species besides Arabidopsis we made transgenic 35S::PYR1^MANDI tomato. The same construct utilized for construction of Arabidopsis transgenics (described in Example 5) was modified to contain a kanamycin selection marker. Tomato was transformed by Agrobacterium-mediated transformation, which was conducted as described by Sun et al. (2006) with a few modifications. Surface sterilized tomato seeds (strain UC82B) were germinated on sterilized wet filter paper in a petridish. Cotyledons from 7-day old seedlings were excised and dipped into a suspension of Agrobacterium in MS medium containing 100 μM acetosyringone and 10 μM 2-mercaptoethanol for 10 minutes. Explants were then placed on co-cultivation medium containing MS salts, 3% sucrose, 0.3% Gelite and 1.5 mg/L zeatin. After 3 days of co-culture in darkness, the explants were transferred onto callus induction medium containing MS salts, 3% sucrose, 0.3% Gelite, 1.5 mg/L zeatin and 100 mg/L kanamycin and 125 mg/L carbenicillin. Explants were transferred to freshly prepared medium every 2 weeks. […]

T1 sequence (Q9CAJ0 23-511): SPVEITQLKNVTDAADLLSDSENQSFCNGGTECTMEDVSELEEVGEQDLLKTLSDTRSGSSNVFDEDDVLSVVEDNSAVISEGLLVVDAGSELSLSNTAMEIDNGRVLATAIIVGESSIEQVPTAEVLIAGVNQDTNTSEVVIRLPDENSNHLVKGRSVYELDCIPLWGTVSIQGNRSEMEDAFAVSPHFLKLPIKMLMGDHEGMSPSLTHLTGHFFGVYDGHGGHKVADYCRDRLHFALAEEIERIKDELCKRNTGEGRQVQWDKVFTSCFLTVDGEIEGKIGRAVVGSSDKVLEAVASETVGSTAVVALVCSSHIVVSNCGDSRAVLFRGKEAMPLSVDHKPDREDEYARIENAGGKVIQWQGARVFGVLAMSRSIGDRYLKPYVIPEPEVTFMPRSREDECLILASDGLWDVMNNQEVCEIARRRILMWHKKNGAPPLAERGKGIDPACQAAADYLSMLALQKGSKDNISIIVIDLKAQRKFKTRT
T1 sequence (O49686 whole entry K59R/F108A/S122G): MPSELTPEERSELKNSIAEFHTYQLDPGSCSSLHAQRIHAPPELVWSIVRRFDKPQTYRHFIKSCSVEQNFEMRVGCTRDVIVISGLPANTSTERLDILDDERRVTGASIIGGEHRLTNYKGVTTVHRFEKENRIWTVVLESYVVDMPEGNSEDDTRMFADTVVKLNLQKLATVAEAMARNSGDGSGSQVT

For `C#CCOc1ccc(CCNC(=O)C(OCC#C)c2ccc(Cl)cc2)cc1OC` (stereo not shown) [Mandipropamid, mandipropamid], the “transgenic plants whose germination was inhibited by mandipropamid” value [1] was 5 of the 15, the “transgenic plants whose germination was inhibited by mandipropamid” value [2] was 7 of the 16 and the Threshold [3] was 1 µM. The leaf temperature [4] was “increase in leaf temperature”.

From US9738902B2, “Modified PYR/PYL receptors activated by ligands” (priority 2013, dated 2017)
